Data published in ChEMBL document CHEMBL1909046, “DrugMatrix in vitro pharmacology data”.

Experiments:
[1] = molecular target: T1, Muscarinic acetylcholine receptor M5 (Homo sapiens, UniProt P08912); type: cell membranes, CHO-K1, Membrane; note: in other assays of this panel Not Active means under 50% inhibition at 10 µM
T1 sequence (P08912 whole entry): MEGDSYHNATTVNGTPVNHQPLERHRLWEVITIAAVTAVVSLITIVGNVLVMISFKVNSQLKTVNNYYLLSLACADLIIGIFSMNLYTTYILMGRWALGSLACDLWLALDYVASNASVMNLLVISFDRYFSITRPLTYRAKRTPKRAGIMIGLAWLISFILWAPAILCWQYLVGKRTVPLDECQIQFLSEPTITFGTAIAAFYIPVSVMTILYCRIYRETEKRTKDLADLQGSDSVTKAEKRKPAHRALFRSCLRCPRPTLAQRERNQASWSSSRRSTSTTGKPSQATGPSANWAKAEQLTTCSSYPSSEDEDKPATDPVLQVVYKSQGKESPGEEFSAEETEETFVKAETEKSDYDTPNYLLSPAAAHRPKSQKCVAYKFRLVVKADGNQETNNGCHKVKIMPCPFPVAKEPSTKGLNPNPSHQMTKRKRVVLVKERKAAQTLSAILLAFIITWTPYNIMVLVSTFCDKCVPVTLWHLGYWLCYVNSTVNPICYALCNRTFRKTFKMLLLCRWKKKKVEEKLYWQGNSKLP

[2] = molecular target: T2, Muscarinic acetylcholine receptor M4 (Homo sapiens, UniProt P08173); type: cell membranes, CHO-K1, Membrane; note: in other assays of this panel Not Active means under 50% inhibition at 10 µM
T2 sequence (P08173 whole entry): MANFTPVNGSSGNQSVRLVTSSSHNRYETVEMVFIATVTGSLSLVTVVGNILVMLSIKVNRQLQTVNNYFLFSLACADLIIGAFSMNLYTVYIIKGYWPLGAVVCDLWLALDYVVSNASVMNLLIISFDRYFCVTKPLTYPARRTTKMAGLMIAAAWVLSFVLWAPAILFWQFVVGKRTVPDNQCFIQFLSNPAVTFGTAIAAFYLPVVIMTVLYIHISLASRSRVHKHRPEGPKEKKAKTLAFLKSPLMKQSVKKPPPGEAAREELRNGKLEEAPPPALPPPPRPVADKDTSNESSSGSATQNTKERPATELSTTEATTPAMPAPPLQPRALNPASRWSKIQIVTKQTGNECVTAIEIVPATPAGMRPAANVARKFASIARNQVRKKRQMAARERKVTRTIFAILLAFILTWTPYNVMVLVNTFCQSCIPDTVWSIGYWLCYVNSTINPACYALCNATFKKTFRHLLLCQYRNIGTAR

[3] = molecular target: T3, Alpha-2A adrenergic receptor (Homo sapiens, UniProt P08913); type: cell membranes, Sf9, Membrane; note: in other assays of this panel Not Active means under 50% inhibition at 10 µM
T3 sequence (P08913 whole entry): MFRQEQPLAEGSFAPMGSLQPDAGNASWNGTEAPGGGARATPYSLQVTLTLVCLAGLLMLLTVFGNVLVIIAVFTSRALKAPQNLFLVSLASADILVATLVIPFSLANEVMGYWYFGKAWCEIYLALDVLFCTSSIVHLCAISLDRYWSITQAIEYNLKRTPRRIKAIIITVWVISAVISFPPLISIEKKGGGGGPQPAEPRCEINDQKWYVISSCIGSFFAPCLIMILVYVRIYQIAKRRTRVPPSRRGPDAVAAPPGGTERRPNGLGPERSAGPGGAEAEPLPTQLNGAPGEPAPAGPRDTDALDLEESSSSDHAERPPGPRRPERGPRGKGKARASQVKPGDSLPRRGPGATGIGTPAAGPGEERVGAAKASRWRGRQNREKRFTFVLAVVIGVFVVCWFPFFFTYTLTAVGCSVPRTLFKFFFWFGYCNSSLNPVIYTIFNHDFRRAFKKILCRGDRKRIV

[4] = molecular target: Histamine H2 receptor (Homo sapiens, UniProt P25021); type: cell membranes, CHO-K1, Membrane; note: in other assays of this panel Not Active means under 50% inhibition at 10 µM
Histamine H2 receptor, sequence (P25021 whole entry): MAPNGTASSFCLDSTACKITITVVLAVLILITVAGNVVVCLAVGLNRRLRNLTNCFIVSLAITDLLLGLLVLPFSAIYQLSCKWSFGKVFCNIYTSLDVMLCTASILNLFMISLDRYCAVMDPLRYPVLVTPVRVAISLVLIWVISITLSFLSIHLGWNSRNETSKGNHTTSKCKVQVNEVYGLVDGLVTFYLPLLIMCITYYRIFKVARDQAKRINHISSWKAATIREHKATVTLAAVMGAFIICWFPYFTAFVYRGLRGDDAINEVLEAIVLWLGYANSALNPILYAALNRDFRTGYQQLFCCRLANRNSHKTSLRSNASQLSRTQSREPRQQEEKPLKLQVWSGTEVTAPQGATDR

[5] = molecular target: Carbonic anhydrase 2 (Homo sapiens, UniProt P00918); experiment: DRUGMATRIX: Carbonic Anhydrase II enzyme inhibition (substrate: 4-Nitrophenyl acetate (4-NPA)); type: tissue-based, Erythrocyte; conditions: erythrocyte; Not Active = under 50% inhibition at 10 µM

| Compound | IC50 ([1]; cho-k1) | IC50 ([2]; cho-k1) | IC50 ([3]; sf9) | IC50 ([4]; cho-k1) | IC50 [5] | other results |
| --- | --- | --- | --- | --- | --- | --- |
| C[C@]12CC[C@@H]3c4ccc(O)cc4CC[C@H]3[C@@H]1CCC2=O [ESTRONE] | Not Active | Not Active | Not Active | Not Active | Not Active |  |
| CNCCc1ccccn1 [BETAHISTINE] | Not Active | Not Active | Not Active | Not Active | Not Active |  |
| Cc1ccccc1N1C(=O)c2cc(S(N)(=O)=O)c(Cl)cc2NC1C (stereo not drawn) [METOLAZONE] | Not Active | Not Active | Not Active | Not Active | Not Active |  |
| O=C1CC[C@@H](N2C(=O)c3ccccc3C2=O)C(=O)N1 | Not Active | Not Active | Not Active | Not Active | Not Active |  |
| Nc1c(Br)cc(Br)cc1CN[C@H]1CC[C@H](O)CC1 [AMBROXOL] | Not Active | Not Active | Not Active | Not Active | Not Active |  |
| Nc1nc2c(ncn2COCCO)c(=O)[nH]1 [ACYCLOVIR] | Not Active | Not Active | Not Active | Not Active | Not Active |  |
| CN(C)CCCN1c2ccccc2Sc2ccccc21 [PROMAZINE] |  |  |  |  | Not Active | IC50 ([1]; read-out: IC50): 64 nM; Ki ([1]; read-out: Ki): 46 nM; IC50 ([2]; read-out: IC50): 299 nM; Ki ([2]; read-out: Ki): 42 nM; IC50 ([3]; read-out: IC50): 337 nM; Ki ([3]; read-out: Ki): 126 nM; IC50 ([4]; read-out: IC50): 2860 nM; Ki ([4]; read-out: Ki): 2810 nM |
| CC1(C)O[C@@H]2C[C@H]3[C@@H]4CCC5=CC(=O)CC[C@]5(C)[C@@]4(F)[C@@H](O)C[C@]3(C)[C@]2(C(=O)CCl)O1 [HALCINONIDE] | Not Active | Not Active | Not Active | Not Active | Not Active |  |
| CC1CC(OC(=O)C(O)c2ccccc2)CC(C)(C)C1 (stereo not drawn) [CYCLANDELATE] | Not Active | Not Active | Not Active | Not Active | Not Active |  |
| LEAD (II) ACETATE | Not Active | Not Active |  | Not Active | Not Active | Ki ([1]; cho-k1): Not Active; Ki ([2]; cho-k1): Not Active; IC50 ([3]; sf9, read-out: IC50): 3600 nM; Ki ([4]; cho-k1): Not Active; Ki [5]: Not Active |
| Sc1ncnc2nc[nH]c12 [MERCAPTOPURINE ANHYDROUS] | Not Active | Not Active | Not Active | Not Active | Not Active |  |
| O=c1[nH]c(=O)n([C@H]2C[C@H](O)[C@@H](CO)O2)cc1I [IDOXURIDINE] | Not Active | Not Active | Not Active | Not Active | Not Active |  |
| CC1(C)S[C@@H]2[C@H](NC(=O)Cc3ccccc3)C(=O)N2[C@H]1C(=O)O [PENICILLIN G] | Not Active | Not Active | Not Active | Not Active | Not Active |  |
| CC1=C2C(=CO[C@H](C)[C@H]2C)C(O)=C(C(=O)O)C1=O [CITRININ] | Not Active | Not Active | Not Active | Not Active | Not Active |  |
| Cc1c(C)c2c(c(C)c1O)CC[C@@](C)(CCC[C@H](C)CCC[C@H](C)CCCC(C)C)O2 [ALPHA-TOCOPHEROL] | Not Active | Not Active | Not Active | Not Active | Not Active |  |
| O=C(O)CCCc1ccc(N(CCCl)CCCl)cc1 [CHLORAMBUCIL] | Not Active | Not Active | Not Active | Not Active | Not Active |  |
| CC[C@@]1(O)C[C@H](O[C@H]2C[C@H](N(C)C)[C@H](O[C@H]3C[C@H](O)[C@H](O[C@H]4CCC(=O)[C@H](C)O4)[C@H](C)O3)[C@H](C)O2)c2c(cc3c(c2O)C(=O)c2c(O)cccc2C3=O)[C@H]1C(=O)OC [ACLARUBICIN] | Not Active | Not Active | Not Active | Not Active | Not Active |  |
